Some test systems named below: ACHN; CAKI-1; COLO 205; DU-145; HOP-92; KM12; MDA-MB-231; MDA-MB-435; Malme-3M; NCI-H226; OVCAR-5; SF-295; SK-MEL-2; SW-620; U-251; SR; LOX IMVI; HL-60.
Common to all, as to assay: NCI tumour cell line growth inhibition, 48 h

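Five concentrations, 48 hours, 96-well plates. GI50 marks 50% less growth.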 Active and inactive are the calls of the source. Cut-off read from the data, not from the text of the source: active = GI50 up to about 1.1 µM and inactive = higher.

Consider `Nn1c(CCCCCCCCc2nnc(COc3ccc(Cl)cc3Cl)n2N)nnc1COc1ccc(Cl)cc1Cl`, for which the GI50 with ACHN is 44.9 µM (inactive); in the experiment with CAKI-1 it was 41.9 µM (inactive); in the experiment on COLO 205, 25.8 µM (inactive); in the experiment with DU-145, 42.9 µM (inactive); in the experiment on HOP-92, 28.4 µM (inactive); in the experiment on KM12, 40 µM (inactive). Further, the GI50 is 52.4 µM (inactive) with MDA-MB-231; 48.3 µM (inactive) with MDA-MB-435; 6.71 µM (inactive) in the experiment on Malme-3M; 63.5 µM (inactive) in the experiment with NCI-H226; 35.6 µM (inactive) in the experiment with OVCAR-5; > 10 µM (inactive) in the experiment on SF-295. Also, the GI50 with SK-MEL-2 was 42 µM (inactive); in the experiment on SW-620, > 100 µM (inactive); with U-251, 62.4 µM (inactive).
For the molecule `C/C=C\C(CC(=O)O)CN1CCC2=C(C1)C(S(=O)(=O)C(F)(F)F)c1ccccc12` (configuration not stated), the GI50 in the experiment with ACHN, in the experiment with CAKI-1, in the experiment with COLO 205, in the experiment on DU-145, with HOP-92 and in the experiment with KM12 was > 100 µM (inactive) throughout. Also, the GI50 in the experiment with MDA-MB-231, in the experiment on MDA-MB-435, with Malme-3M, with OVCAR-5, with SF-295 and in the experiment with SK-MEL-2 was > 100 µM (inactive) in each case. Moreover, the GI50 with SR, in the experiment with SW-620 and in the experiment with U-251 was > 100 µM (inactive) throughout.
`Nc1nc(N)c2nc(CNc3ccc(C(=O)NC(CCNC(=O)c4ccccc4C(=O)O)C(=O)O)cc3)cnc2n1` (configuration not stated): the GI50 in the experiment on ACHN is 0.01 µM (active); with CAKI-1 it was 0.01 µM (active); with DU-145 it was 0.0339 µM (active); with HOP-92, 0.0698 µM (active); in the experiment with KM12, 0.0168 µM (active); with LOX IMVI it was 0.01 µM (active). Also, the GI50 was > 100 µM (inactive) in the experiment with MDA-MB-231; 0.01 µM (active) in the experiment with MDA-MB-435; > 36.2 µM (inactive) with Malme-3M; > 100 µM (inactive) in the experiment with NCI-H226; > 100 µM (inactive) with OVCAR-5; 0.0718 µM (active) in the experiment with SF-295. In addition, the GI50 is > 100 µM (inactive) with SK-MEL-2, 0.01 µM (active) with SR, 0.01 µM (active) with SW-620 and < 0.0254 µM (active) with U-251.
In the case of `Cc1ccc(C)c(N2C(=O)C(=O)C(c3nc4ccccc4s3)/C(=N\c3cccc4c(=O)[nH][nH]c(=O)c34)C2=O)c1` (configuration not stated), the GI50 in the experiment with ACHN is > 100 µM (inactive); in the experiment on CAKI-1, > 100 µM (inactive); in the experiment on COLO 205, 38.2 µM (inactive); in the experiment with HL-60, > 100 µM (inactive); in the experiment on HOP-92, > 100 µM (inactive); with KM12, > 100 µM (inactive). Further, the GI50 in the experiment on LOX IMVI, in the experiment on Malme-3M, in the experiment on NCI-H226, in the experiment with OVCAR-5, in the experiment with SF-295 and in the experiment on SK-MEL-2 was > 100 µM (inactive) in each case. The GI50 with SR, in the experiment on SW-620 and in the experiment on U-251 was > 100 µM (inactive) in each case.
Turning to `Cc1ccc(-n2cc(-c3ccc(Cl)cc3)c3c2N=CN2N=C(c4ccco4)NC32)cc1` (configuration not stated), the GI50 in the experiment on ACHN was 4.24 µM (inactive); in the experiment with CAKI-1, 10.1 µM (inactive); in the experiment with COLO 205 it was 9.18 µM (inactive); with DU-145, > 100 µM (inactive); in the experiment on HL-60 it was > 100 µM (inactive); in the experiment with HOP-92 it was 2.09 µM (inactive). In addition, the GI50 is 21.9 µM (inactive) with LOX IMVI; 5 µM (inactive) with MDA-MB-231; 30.8 µM (inactive) with MDA-MB-435; 31.3 µM (inactive) in the experiment with Malme-3M; 11.2 µM (inactive) in the experiment with NCI-H226; > 100 µM (inactive) in the experiment with OVCAR-5. The GI50 is 6.11 µM (inactive) with SF-295; 10 µM (inactive) with SK-MEL-2; 0.78 µM (active) in the experiment on SR; 8.87 µM (inactive) with SW-620; 5.46 µM (inactive) in the experiment with U-251.
Take `O=C1CCCC2=C1CC1=C(CCCC1=O)N2c1ccccc1`: the GI50 in the experiment with ACHN, in the experiment with CAKI-1, with HL-60, with HOP-92, in the experiment on KM12 and with LOX IMVI was > 100 µM (inactive) in each case. In addition, the GI50 in the experiment with NCI-H226, with OVCAR-5, in the experiment on SR, in the experiment with SW-620 and with U-251 was > 100 µM (inactive) in each case.
For `CCN(CC)c1nc(N(C)C)c2cc(OC)ccc2n1`, the GI50 is 33 µM (inactive) in the experiment on ACHN; 44.6 µM (inactive) in the experiment with CAKI-1; 11.7 µM (inactive) in the experiment with COLO 205; 42.2 µM (inactive) with DU-145; 16.6 µM (inactive) in the experiment on HL-60; 24.2 µM (inactive) in the experiment on HOP-92. Also, the GI50 in the experiment on KM12 was 26.6 µM (inactive); in the experiment on LOX IMVI, 26.8 µM (inactive); with MDA-MB-231, 35.5 µM (inactive); in the experiment on MDA-MB-435 it was 30.1 µM (inactive); with Malme-3M it was 20.3 µM (inactive); with NCI-H226 it was 21.9 µM (inactive). The GI50 in the experiment with OVCAR-5 is 62.5 µM (inactive); with SF-295, 26.7 µM (inactive); in the experiment with SK-MEL-2 it was 36.6 µM (inactive); with SR it was 21.9 µM (inactive); in the experiment on SW-620 it was 24 µM (inactive); in the experiment with U-251, 27.5 µM (inactive).
On to `Nc1nc(N)c(-c2ccc(Cl)cc2)c(CCC(=O)Nc2cccc(C(F)(F)F)c2)n1`, for which the GI50 with ACHN, in the experiment with CAKI-1, in the experiment on COLO 205, in the experiment with HL-60, with KM12 and in the experiment on LOX IMVI was > 100 µM (inactive) in each case. Moreover, the GI50 with Malme-3M, in the experiment on NCI-H226, in the experiment on OVCAR-5, with SF-295, with SK-MEL-2 and in the experiment with SR was > 100 µM (inactive) throughout. The GI50 in the experiment with SW-620 and in the experiment with U-251 was > 100 µM (inactive) each time.
With `C/C1=C\[C@H](C)C[C@H](C)OC(=O)C[C@H](c2ccc(O)cc2)NC(=O)[C@H](Cc2ccc(O)c(I)c2)N(C)C(=O)[C@H](C)NC(=O)[C@@H](C)C1`, the GI50 with ACHN is 0.00832 µM (active); in the experiment on COLO 205 it was 0.0161 µM (active); in the experiment on DU-145, 0.0183 µM (active); in the experiment on HOP-92, 0.0365 µM (active); in the experiment with KM12 it was 0.208 µM (active); with LOX IMVI, 0.00411 µM (active). The GI50 in the experiment with MDA-MB-231 was 0.0333 µM (active); in the experiment with MDA-MB-435 it was 0.0442 µM (active); in the experiment on Malme-3M, 0.0118 µM (active); with NCI-H226, 0.0153 µM (active); with OVCAR-5, 0.131 µM (active); in the experiment with SF-295, 0.0778 µM (active). Besides, the GI50 in the experiment on SK-MEL-2 is 0.0646 µM (active); in the experiment with SR, 0.0968 µM (active); with SW-620, 0.00863 µM (active); with U-251, 0.00944 µM (active).
